{"source": "BindingDB's records for doi:10.1016/s0960-894x(00)00456-x", "about": "(Australian National University, 2001)", "biological_target": "Leucine--tRNA ligase (Staphylococcus aureus)", "assay": "Compound was evaluated for its inhibitory activity against Leucyl-tRNA synthetase from staphylococcus aureus WCUH29"}
{"compound": "CC[C@H](C)[C@H](N)C(=O)NS(=O)(=O)CC(=O)N[C@]1(C(=O)OC)[C@@H]2CN(C)C=C(C(N)=O)[C@@H]2C[C@@H]1O", "note": "[(4aR,6S,7R,7aS)-7-[2-((2S,3S)-2-Amino-3-methyl-pentanoylsulfamoyl)-acetylamino]-4-carbamoyl-6-hydroxy-2-methyl-2,4a,5,6,7,7a-hexahydro-1H-[2]pyrindine-7-carboxylic acid methyl ester]", "values": [{"measurement": "IC50", "value": 186, "unit": "µM"}]}
